Results as given in ChEMBL document CHEMBL1201862, “PubChem BioAssay data set” (2004).
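Where inhibition never reached the appropriate level, the endpoint shown equals the highest concentration tested. Otherwise, values were interpolated linearly from a five-concentration, 48-hour dose response in 96-well plates. Here, GI50 denotes the concentration required for 50% inhibition of growth.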 Activity calls are given as the source filed them. No stated cut-off is given here; in the data, active = GI50 up to about 1.1 µM and inactive = higher.

Legend:
Experiment in all cases: NCI-60 cell line screen, 48 h
HCC 2998 = tested on: HCC 2998
MOLT-4 = tested on: MOLT-4
MDA-N = tested on: MDA-N
TK-10 = tested on: TK-10
SK-MEL-2 = tested on: SK-MEL-2
HOP-62 = tested on: HOP-62
Malme-3M = tested on: Malme-3M
COLO 205 = tested on: COLO 205
RXF 393 = tested on: RXF 393
KM12 = tested on: KM12
OVCAR-3 = tested on: OVCAR-3
BT-549 = tested on: BT-549
SN12C = tested on: SN12C
SNB-75 = tested on: SNB-75
RPMI-8226 = tested on: RPMI-8226
SR = tested on: SR
LOX IMVI = tested on: LOX IMVI
SK-MEL-5 = tested on: SK-MEL-5
Hs-578T = tested on: Hs-578T
MCF7 = tested on: MCF7

CCOC(=O)NN(C(=O)OCC)C(=C(c1ccccc1)N1CCOCC1)N(NC(=O)OCC)C(=O)OCC
GI50 (HCC 2998): > 100 µM (inactive) | GI50 (MOLT-4): > 100 µM (inactive) | GI50 (MDA-N): > 100 µM (inactive) | GI50 (TK-10): > 100 µM (inactive) | GI50 (SK-MEL-2): > 100 µM (inactive) | GI50 (HOP-62): > 100 µM (inactive) | GI50 (Malme-3M): > 100 µM (inactive) | GI50 (COLO 205): > 100 µM (inactive) | GI50 (RXF 393): > 100 µM (inactive) | GI50 (KM12): > 100 µM (inactive) | GI50 (OVCAR-3): > 100 µM (inactive) | GI50 (BT-549): > 100 µM (inactive) | GI50 (SN12C): > 100 µM (inactive) | GI50 (SNB-75): 44 µM (inactive) | GI50 (RPMI-8226): > 100 µM (inactive) | GI50 (SR): > 100 µM (inactive) | GI50 (LOX IMVI): > 100 µM (inactive) | GI50 (SK-MEL-5): > 100 µM (inactive) | GI50 (Hs-578T): > 100 µM (inactive) | GI50 (MCF7): > 100 µM (inactive)

COc1cc(C2c3[nH]c4ccccc4c3[C@@H](Nc3ccc(C#N)cc3)[C@H]3COC(=O)N23)cc(OC)c1O (stereo not given in full)
GI50 (HCC 2998): 0.239 µM (active) | GI50 (MOLT-4): 0.0188 µM (active) | GI50 (MDA-N): 0.376 µM (active) | GI50 (TK-10): 0.335 µM (active) | GI50 (SK-MEL-2): 0.356 µM (active) | GI50 (HOP-62): 0.192 µM (active) | GI50 (Malme-3M): 0.279 µM (active) | GI50 (COLO 205): 0.644 µM (active) | GI50 (RXF 393): 1.16 µM (inactive) | GI50 (KM12): 0.243 µM (active) | GI50 (OVCAR-3): 0.441 µM (active) | GI50 (BT-549): 0.265 µM (active) | GI50 (SN12C): 0.186 µM (active) | GI50 (SNB-75): 0.227 µM (active) | GI50 (RPMI-8226): 0.144 µM (active) | GI50 (SR): 0.0113 µM (active) | GI50 (LOX IMVI): 0.0962 µM (active) | GI50 (SK-MEL-5): 0.132 µM (active) | GI50 (Hs-578T): 0.265 µM (active) | GI50 (MCF7): 0.16 µM (active)

CC(C)OP(=O)(OC(C)C)C(C(C)C)N(C)/C(N)=N\C1=NC(C(F)(F)F)(C(F)(F)F)N=C(C(C(F)(F)F)C(F)(F)F)O1 (stereo not given)
GI50 (HCC 2998): 4.91 µM (inactive) | GI50 (MOLT-4): 1.49 µM (inactive) | GI50 (MDA-N): 2.14 µM (inactive) | GI50 (TK-10): 3.61 µM (inactive) | GI50 (SK-MEL-2): 9.44 µM (inactive) | GI50 (HOP-62): 3.96 µM (inactive) | GI50 (Malme-3M): 4.51 µM (inactive) | GI50 (COLO 205): 1.8 µM (inactive) | GI50 (RXF 393): 1.6 µM (inactive) | GI50 (KM12): 3.4 µM (inactive) | GI50 (OVCAR-3): 3.27 µM (inactive) | GI50 (BT-549): 2.79 µM (inactive) | GI50 (SN12C): 3.15 µM (inactive) | GI50 (SNB-75): 2.42 µM (inactive) | GI50 (RPMI-8226): 1.97 µM (inactive) | GI50 (SR): 1.9 µM (inactive) | GI50 (LOX IMVI): 1.79 µM (inactive) | GI50 (SK-MEL-5): 1.56 µM (inactive) | GI50 (Hs-578T): 4.99 µM (inactive) | GI50 (MCF7): 3.79 µM (inactive)

CC(=O)O[C@H]1CC[C@@]2(C)C(=CC[C@H]3[C@@H]4CC[C@H](c5cc(C(F)(F)F)n(C(C)=O)n5)[C@@]4(C)CC[C@@H]32)C1
GI50 (HCC 2998): 13.6 µM (inactive) | GI50 (MOLT-4): 2.47 µM (inactive) | GI50 (MDA-N): 11.3 µM (inactive) | GI50 (TK-10): 5.22 µM (inactive) | GI50 (SK-MEL-2): 6.93 µM (inactive) | GI50 (HOP-62): 8.2 µM (inactive) | GI50 (Malme-3M): > 35 µM (inactive) | GI50 (COLO 205): 3.62 µM (inactive) | GI50 (RXF 393): 5.68 µM (inactive) | GI50 (KM12): 8.41 µM (inactive) | GI50 (OVCAR-3): 5.77 µM (inactive) | GI50 (BT-549): 10.7 µM (inactive) | GI50 (SN12C): 7.57 µM (inactive) | GI50 (SNB-75): 8.22 µM (inactive) | GI50 (RPMI-8226): 2.8 µM (inactive) | GI50 (SR): 3.98 µM (inactive) | GI50 (LOX IMVI): 7.4 µM (inactive) | GI50 (SK-MEL-5): 3.45 µM (inactive) | GI50 (Hs-578T): 26.8 µM (inactive) | GI50 (MCF7): 5.87 µM (inactive)

N#Cc1c(-c2ccc(Cl)cc2)c2c(n(C3OC(CO)C(O)C(O)C3O)c1=S)CCC2 (stereo not given)
GI50 (HCC 2998): 19.8 µM (inactive) | GI50 (MOLT-4): 10.4 µM (inactive) | GI50 (MDA-N): 34.5 µM (inactive) | GI50 (TK-10): 37.6 µM (inactive) | GI50 (SK-MEL-2): 34.5 µM (inactive) | GI50 (HOP-62): 23.6 µM (inactive) | GI50 (Malme-3M): 26.2 µM (inactive) | GI50 (COLO 205): 29.6 µM (inactive) | GI50 (RXF 393): 21.9 µM (inactive) | GI50 (KM12): 41.9 µM (inactive) | GI50 (OVCAR-3): 28 µM (inactive) | GI50 (BT-549): 34.4 µM (inactive) | GI50 (SN12C): 33.9 µM (inactive) | GI50 (SNB-75): 19.8 µM (inactive) | GI50 (RPMI-8226): 45.8 µM (inactive) | GI50 (SR): 47 µM (inactive) | GI50 (LOX IMVI): 16.9 µM (inactive) | GI50 (SK-MEL-5): 13.3 µM (inactive) | GI50 (Hs-578T): 31.7 µM (inactive) | GI50 (MCF7): 20.9 µM (inactive)

Nc1ccc2c(c1)nc1n2C(c2c(F)cccc2F)SC1 (stereo not given)
GI50 (HCC 2998): > 100 µM (inactive) | GI50 (MOLT-4): 26.9 µM (inactive) | GI50 (MDA-N): > 100 µM (inactive) | GI50 (TK-10): > 100 µM (inactive) | GI50 (SK-MEL-2): > 100 µM (inactive) | GI50 (HOP-62): > 100 µM (inactive) | GI50 (Malme-3M): > 100 µM (inactive) | GI50 (COLO 205): > 100 µM (inactive) | GI50 (RXF 393): > 100 µM (inactive) | GI50 (KM12): > 100 µM (inactive) | GI50 (OVCAR-3): > 100 µM (inactive) | GI50 (BT-549): > 100 µM (inactive) | GI50 (SN12C): > 100 µM (inactive) | GI50 (SNB-75): > 100 µM (inactive) | GI50 (RPMI-8226): > 100 µM (inactive) | GI50 (SR): > 100 µM (inactive) | GI50 (LOX IMVI): > 100 µM (inactive) | GI50 (SK-MEL-5): 47.8 µM (inactive) | GI50 (Hs-578T): > 100 µM (inactive) | GI50 (MCF7): > 100 µM (inactive)

CC(=O)Nc1ccc2c3c(cc(O)c2c1)N(C(=O)CCCCCCC(=O)Nc1ccc2c4c(cc(O)c2c1)N(C(=O)OC(C)(C)C)CC4CCl)CC3CCl (stereo not given)
GI50 (HCC 2998): 0.0502 µM (active) | GI50 (MOLT-4): < 0.01 µM (active) | GI50 (MDA-N): 0.134 µM (active) | GI50 (TK-10): 0.344 µM (active) | GI50 (SK-MEL-2): 0.0423 µM (active) | GI50 (HOP-62): 0.091 µM (active) | GI50 (Malme-3M): 0.083 µM (active) | GI50 (COLO 205): 0.103 µM (active) | GI50 (RXF 393): 0.016 µM (active) | GI50 (KM12): 0.169 µM (active) | GI50 (OVCAR-3): 0.045 µM (active) | GI50 (BT-549): 0.146 µM (active) | GI50 (SN12C): 0.13 µM (active) | GI50 (SNB-75): 0.0776 µM (active) | GI50 (RPMI-8226): 0.0877 µM (active) | GI50 (SR): < 0.01 µM (active) | GI50 (LOX IMVI): 0.0391 µM (active) | GI50 (SK-MEL-5): 0.0217 µM (active) | GI50 (Hs-578T): 0.264 µM (active) | GI50 (MCF7): < 0.01 µM (active)

N/C(=N\Nc1ccc(C(=O)O)cc1)c1cnccn1
GI50 (HCC 2998): > 100 µM (inactive) | GI50 (MOLT-4): > 100 µM (inactive) | GI50 (MDA-N): > 100 µM (inactive) | GI50 (TK-10): > 100 µM (inactive) | GI50 (SK-MEL-2): > 100 µM (inactive) | GI50 (HOP-62): > 100 µM (inactive) | GI50 (Malme-3M): 37.2 µM (inactive) | GI50 (COLO 205): > 100 µM (inactive) | GI50 (RXF 393): > 100 µM (inactive) | GI50 (KM12): > 100 µM (inactive) | GI50 (OVCAR-3): > 100 µM (inactive) | GI50 (BT-549): > 100 µM (inactive) | GI50 (SN12C): > 100 µM (inactive) | GI50 (SNB-75): > 100 µM (inactive) | GI50 (RPMI-8226): > 100 µM (inactive) | GI50 (SR): > 100 µM (inactive) | GI50 (LOX IMVI): > 100 µM (inactive) | GI50 (SK-MEL-5): > 100 µM (inactive) | GI50 (Hs-578T): > 100 µM (inactive) | GI50 (MCF7): > 100 µM (inactive)
